From patent US7595398B2, “N-(5-membered aromatic ring)-amido anti-viral compounds” (SmithKline Beecham Corporation, priority 2005, dated 2009) come the findings set out here.

SMILES strings stand for the structures. Counter-ions that a name gives are not always drawn.

The test system of the experiment is HCV replicon I389luc-ubi-neo/NS3-3′/ET in ET (Huh-lucubineo-ET) cells; screening for HCV RNA dependent RNA polymerase. The experiment is described as follows: Replicon Assay (luciferase, ET cell line Huh-lucubineo-ET). The experiment is classed as cell-based. As to conditions: Hepatitis C virus; inhibition of replication relative to no compound control; test concentration of 10 μM according to the fitted equation; luciferase 48-72 hours. How it is done: A cell line, ET (Huh-lucubineo-ET) was used for screening of compounds of the present invention for HCV RNA dependent RNA polymerase. The ET cell line was stably transfected with RNA transcripts harboring a I389luc-ubi-neo/NS3-3′/ET; replicon with firefly luciferase-ubiquitin-neomycin phosphotransferase fusion protein and EMCV-IRES driven NS3-5B polyprotein containing the cell culture adaptive mutations (E1202G; T12801; K1846T) (Krieger at al, 2001 and unpublished). The ET cells were grown in DMEM, supplemented with 10% fetal calf serum, 2 mM Glutamine, Penicillin (100 IU/mL)/Streptomycin (100 μg/mL), 1× nonessential amino acids, and 250 μg/mL G418 (“Geneticin”). They were all available through Life Technologies (Bethesda, Md.). The cells were plated at 0.5-1.0×10^4 cells/well in the 96 well plates and incubated for 24 hrs before adding nucleoside analogs. […] Luciferase activity were measured 48-72 hours later by adding a lysis buffer and the substrate (Catalog number Glo-lysis buffer E2661 and Bright-Glo luciferase system E2620 Promega, Madison, Wis.). Cells should not be too confluent during the assay. Percent inhibition of replication was plotted relative to no compound control. Under the same condition, cytotoxicity of the compounds was determined using cell proliferation reagent, WST-1(Roche, Germany). The compounds showing antiviral activities, but no significant cytotoxicities were chosen to determine IC50 and TC50. For these determinations, 10 concentrations of each compound were used. Concentrations for test compounds typically span a range of 500 fold. IC50 and TC50 values were calculated by fitting % inhibition at each concentration (I) to the following equation: % inhibition=100%/[1+10^(log IC50−log (I))*b] where b is Hill's coefficient.
For orientation: In antiviral work, replicon cells carry a viral genome segment that copies itself.
What is called inhibition is the drop in the measured response relative to a control, in per cent. Low readings indicate a weak effect, high ones a strong effect. Regarding `O=C(Nc1ccccc1)c1ccc(-c2csc(NC(=O)C3CCCN3C(=O)OCc3ccccc3)n2)cc1` (centres unmarked) [Compound 5109, 2-[4-(4-Phenylcarbamoyl-phenyl)-thiazol-2-ylcarbamoyl]-pyrrolidine-1-carboxylic acid benzyl ester], testing at 10 µM gave an inhibition of 100%. For `O=C(Nc1nc(-c2cccc([N+](=O)[O-])c2)cs1)[C@@H]1CCCN1C(=O)OCc1ccccc1` [Compound 5008, 2-[4-(3-Nitro-phenyl)-thiazol-2-ylcarbamoyl]-pyrrolidine-1-carboxylic acid benzyl ester; hydrobromide], the inhibition at 10 µM was 63%. On to `CNC(=O)c1ccc(-c2csc(NC(=O)[C@@H]3CCCN3C(=O)OCc3ccccc3)n2)cc1` [Compound 5105, 2-[4-(4-Methylcarbamoyl-phenyl)-thiazol-2-ylcarbamoyl]-pyrrolidine-1-carboxylic acid benzyl ester], for which the inhibition at 10 µM stood at 100%. In turn, `COc1c(F)c(F)c(-c2csc(NC(=O)[C@@H]3CCCN3C(=O)OCc3ccccc3)n2)c(F)c1F` [Compound 5020, 2-[4-(2,3,5,6-Tetrafluoro-4-methoxy-phenyl)-thiazol-2-ylcarbamoyl]-pyrrolidine-1-carboxylic acid benzyl ester] yielded an inhibition at 10 µM of 58.2%. `Cc1ccc(S(=O)(=O)Cc2csc(NC(=O)[C@@H]3CCCN3C(=O)OCc3ccccc3)n2)cc1` [Compound 5033, 2-[4-(Toluene-4-sulfonylmethyl)-thiazol-2-ylcarbamoyl]-pyrrolidine-1-carboxylic acid benzyl ester] had an inhibition at 10 µM of 2.51%. For the molecule `CC1(C)CC(c2csc(NC(=O)[C@@H]3CCCN3C(=O)OCc3ccccc3)n2)CCO1` (stereo in doubt) [Compound 5046, 2-[4-(2,2-Dimethyl-tetrahydro-pyran-4-yl)-thiazol-2-ylcarbamoyl]-pyrrolidine-1-carboxylic acid benzyl ester], the inhibition at 10 µM is 8.29%. Take `CC(C)(C)OC(=O)N1CCS[C@H]1C(=O)Nc1nc(-c2ccc(C(=O)NC3CC3)cc2)cs1` [Compound 5334, 2-[4-(4-Cyclopropylcarbamoyl-phenyl)-thiazol-2-ylcarbamoyl]-thiazolidine-3-carboxylic acid tert-butyl ester]: the inhibition at 10 µM amounted to 99.9%. The same measure for `O=C(NC1CC1)c1ccc(-c2csc(NC(=O)[C@@H]3CCCN3C(=O)Cc3ccccc3)n2)cc1` [Compound 5325, 1-Phenylacetyl-pyrrolidine-2-carboxylic acid [4-(4-cyclopropylcarbamoyl-phenyl)-thiazol-2-yl]-amide]: 86.9%; for `O=C(Nc1ncc(Cc2ccc(Cl)cc2Cl)s1)[C@@H]1CCCN1C(=O)OCc1ccccc1` [Compound 5031, 2-[5-(2,4-Dichloro-benzyl)-thiazol-2-ylcarbamoyl]-pyrrolidine-1-carboxylic acid benzyl ester]: 2.85%; for `O=C(Nc1nc(-c2ccc(S(=O)(=O)NC3CCCC3)cc2)cs1)C1CCCN1C(=O)OCc1ccccc1` (centres unmarked) [Compound 5354, 2-[4-(4-Cyclopentylsulfamoyl-phenyl)-thiazol-2-ylcarbamoyl]-pyrrolidine-1-carboxylic acid benzyl ester]: 87.5%.

`Cc1ccc(C)c(-c2cnc(NC(=O)[C@@H]3CCCN3C(=O)OCc3ccccc3)s2)c1` [Compound 5042, 2-[5-(2,5-Dimethyl-phenyl)-thiazol-2-ylcarbamoyl]-pyrrolidine-1-carboxylic acid benzyl ester] came in with an inhibition at 10 µM of 90.3%. The same measure for `COc1ccc(-c2csc(NC(=O)[C@@H]3CCCN3C(=O)OCc3ccccc3)n2)cc1[N+](=O)[O-]` [Compound 5091, 2-[4-(4-Methoxy-3-nitro-phenyl)-thiazol-2-ylcarbamoyl]-pyrrolidine-1-carboxylic acid benzyl ester]: 100%; for `Nc1cccc(-c2cnc(NC(=O)[C@@H]3CCCN3C(=O)OCc3ccccc3)s2)c1` [Compound 5114, 2-[5-(3-Amino-phenyl)-thiazol-2-ylcarbamoyl]-pyrrolidine-1-carboxylic acid benzyl ester]: 25%; for `CC(C)c1ccc(-c2csc(NC(=O)[C@@H]3CCCN3C(=O)OCc3ccccc3)n2)cc1` [Compound 5069, 2-[4-(4-Isopropyl-phenyl)-thiazol-2-ylcarbamoyl]-pyrrolidine-1-carboxylic acid benzyl ester]: 3.15%. The value for `O=C(NC1CC1)c1ccc(-c2cnc(NC(=O)[C@@H]3CCCN3C(=O)OCc3ccccc3)s2)cc1` [Compound 5352, 2-[5-(4-Cyclopropylcarbamoyl-phenyl)-thiazol-2-ylcarbamoyl]-pyrrolidine-1-carboxylic acid benzyl ester] was 7.07%; that for `O=C(Nc1nc2cc3ccccc3cc2s1)[C@@H]1CCCN1C(=O)OCc1ccccc1` [Compound 5035, 2-(Naphtho[2,3-d]thiazol-2-ylcarbamoyl)-pyrrolidine-1-carboxylic acid benzyl ester] was 100%. In the case of `O=C(Nc1ccncc1)c1ccc(-c2csc(NC(=O)[C@@H]3CCCN3C(=O)OCc3ccccc3)n2)cc1` [Compound 5302, 2-{4-[4-(Pyridin-4-ylcarbamoyl)-phenyl]-thiazol-2-ylcarbamoyl}-pyrrolidine-1-carboxylic acid benzyl ester], the inhibition at 10 µM worked out at 100%. In turn, `O=C(NC1CC1)c1ccc(-c2csc(NC(=O)C3CCC[C@H]3C(=O)NCc3ccccc3)n2)cc1` (mixture of isomers) [Compound 5340, Cyclopentane-1,2-dicarboxylic acid 1-benzylamide 2-{[4-(4-cyclopropylcarbamoyl-phenyl)-thiazol-2-yl]-amide}] displayed an inhibition at 10 µM of 100%.

Molecule `CN(C(=O)c1ccc(-c2csc(NC(=O)[C@@H]3CCCN3C(=O)OCc3ccccc3)n2)cc1)c1ccccc1` [Compound 5328, 2-{4-[4-(Methyl-phenyl-carbamoyl)-phenyl]-thiazol-2-ylcarbamoyl}-pyrrolidine-1-carboxylic acid benzyl ester] displayed an inhibition at 10 µM of 97.3%.

Molecule `O=C(NCCN1CCCCC1)c1ccc(-c2csc(NC(=O)[C@@H]3CCCN3C(=O)OCc3ccccc3)n2)cc1` [Compound 5307, 2-{4-[4-(2-Piperidin-1-yl-ethylcarbamoyl)-phenyl]-thiazol-2-ylcarbamoyl}-pyrrolidine-1-carboxylic acid benzyl ester] yielded an inhibition at 10 µM of 100%. In the case of `Cc1ccc(S(=O)(=O)Nc2ccc(-c3csc(NC(=O)[C@@H]4CCCN4C(=O)OCc4ccccc4)n3)cc2)cc1` [Compound 5005, 2-{4-[4-(Toluene-4-sulfonylamino)-phenyl]-thiazol-2-ylcarbamoyl}-pyrrolidine-1-carboxylic acid benzyl ester], 10 µM produced 99.8% inhibition.

In turn, `O=C(Nc1nc(-c2ccccc2Cl)cs1)[C@@H]1CCCN1C(=O)OCc1ccccc1` [Compound 5103, 2-[4-(2-Chloro-phenyl)-thiazol-2-ylcarbamoyl]-pyrrolidine-1-carboxylic acid benzyl ester] registered an inhibition at 10 µM of 99.3%.

Molecule `O=C(NCCN1CCOCC1)c1ccc(-c2csc(NC(=O)C3CCCN3C(=O)OCc3ccccc3)n2)cc1` (centres unmarked) [Compound 5339, 2-{4-[4-(2-Morpholin-4-yl-ethylcarbamoyl)-phenyl]-thiazol-2-ylcarbamoyl}-pyrrolidine-1-carboxylic acid benzyl ester] showed an inhibition at 10 µM of 100%.
